Data reported in patent US11773057B2, “Naphthalenesulfonamide compound, preparation method, and application” (CHINA PHARMACEUTICAL UNIVERSITY, priority 2019, dated 2023).

Target: T1, Keap1-Nrf2 PPI (Keap1 kelch domain protein, FITC labeled Nrf2 9 peptide) (Homo sapiens, UniProt Q14145)
T1 construct: 10 μL 12 nm Keap1 kelch domain protein
Test: Fluorescence polarization based Keap1-Nrf2 PPI competitive inhibition experiment (FP experiment)
Format: binding
Settings: FP experiment
Description: 1. Keap1-Nrf2 PPI Competitive Inhibition Test Based on Fluorescence Polarization (FP Experiment)
The 384-well blackboard model 3676 produced by Corning is used in FP experiment, with a total volume of reaction of 40 μL. 20 μL compound, 10 μL 4 nm FITC labeled Nrf2 9 peptide, 10 μL 12 nm Keap1 kelch domain protein are added to the well in order. 20 μL 200 nM DDO-1002, 10 μL 4 nM of the FITC-labeled Nrf2 9 peptide, 10 μL 12 nM of Keap1 Ketch domain protein are used in the positive control; 20 μL HEPES buffer, 10 μL 4 nM of the FITC-labeled Nrf2 9 peptide, 10 μL, 12 nM of Keap1 Kelch domain protein are used in the negative control; 10 μL 4 nM of the FITC-labeled Nrf2 9 peptide, 30 μL of HEPES buffer are used in the blank control. After addition is complete, they are incubated for 30 min at room temperature. The detection instrument is a SpectraMax Multi-Mode Microplate Reader (Molecular Devices), the excitation light wavelength selected is 485 nm, the emission light wavelength is 545 nm, and the fluorescence intensity in the horizontal and vertical directions is detected to calculate the polarization value. The inhibition rate is calculated as: inhibition %=[…]/(Pmax−Pmin) wherein Pobs is the polarization value of the compound well, Pmax is the polarization value of the negative control well, and Pmin is the polarization value of the blank well. Data treatment is performed using GraphPad Prism, and IC50 of the compound is calculated using a concentration-inhibition rate curve. The IC50 values for each compound are as previously described.

[1] = general formula I / II compounds
[2] = general formula III compounds, unit inferred

T1 sequence (Q14145 321-609 limits assumed): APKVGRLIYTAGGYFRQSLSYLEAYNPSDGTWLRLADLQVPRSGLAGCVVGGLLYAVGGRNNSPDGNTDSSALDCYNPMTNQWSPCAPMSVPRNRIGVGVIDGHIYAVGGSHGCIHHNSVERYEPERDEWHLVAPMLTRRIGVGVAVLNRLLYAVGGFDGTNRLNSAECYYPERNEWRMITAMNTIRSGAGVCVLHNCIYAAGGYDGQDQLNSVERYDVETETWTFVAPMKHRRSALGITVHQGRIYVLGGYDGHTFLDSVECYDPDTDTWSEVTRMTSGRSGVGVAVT

Row | IC50 [1] | Compound | further results
1 | 860 nM | COc1ccc(S(=O)(=O)Nc2ccc(N(Cc3ccccc3)[C@@H](C)CC(=O)O)c3ccccc23)cc1 [DDO-1160] | –
2 | 108 nM | COc1ccc(S(=O)(=O)N(CC(=O)O)c2ccc(N(Cc3ccccc3)[C@@H](C)CC(=O)O)c3ccccc23)cc1 [DDO-1161, (S)-3-(benzyl(4-((N-(carboxymethyl)-4methoxyphenyl)sulfonamido)naphthalen-1-yl) (benzyl)amino) butanoic acid] | –
3 | 1910 nM | COc1ccc(S(=O)(=O)Nc2ccc(N(Cc3ccc(C)cc3)[C@@H](C)CC(=O)O)c3ccccc23)cc1 [DDO-1162, 3-((4-((4-methoxyphenyl)sulfonamido)naphthalen-1-yl) (4-methylbenzyl)amino) butanoic acid] | –
4 | 152 nM | COc1ccc(S(=O)(=O)N(CC(=O)O)c2ccc(N(Cc3ccc(C)cc3)[C@@H](C)CC(=O)O)c3ccccc23)cc1 [DDO-1163] | –
5 | 4100 nM | COc1ccc(S(=O)(=O)Nc2ccc(N(Cc3ccc(Cl)cc3)[C@@H](C)CC(=O)O)c3ccccc23)cc1 [DDO-1164, (S)-3-((4-chlorobenzyl) (4-((4-methoxyphenyl)sulfonamido)naphthalen-1-yl)amino) butanoic acid] | –
6 | 272 nM | COc1ccc(S(=O)(=O)N(CC(=O)O)c2ccc(N(Cc3ccc(Cl)cc3)[C@@H](C)CC(=O)O)c3ccccc23)cc1 [DDO-1165, (S)-3-((4-((N-(carboxymethyl)-4-methoxyphenyl)sulfonamido)naphthalen-1-yl) (4-chlorobenzyl)amino) butanoic acid] | –
7 | 2150 nM | COc1ccc(S(=O)(=O)Nc2ccc(N(Cc3ccc(F)cc3)[C@@H](C)CC(=O)O)c3ccccc23)cc1 [DDO-1166, (S)-3-((4-fluorobenzyl) (4-((4-methoxyphenyl)sulfonamido)naphthalen-1-yl)amino) butanoic acid] | –
8 | 176 nM | COc1ccc(S(=O)(=O)N(CC(=O)O)c2ccc(N(Cc3ccc(F)cc3)[C@@H](C)CC(=O)O)c3ccccc23)cc1 [DDO-1167, (S)-3-((4-((N-(carboxymethyl)-4-methoxyphenyl)sulfonamido)naphthalen-1-yl) (4-fluorobenzyl)amino) butanoic acid] | –
9 | 1660 nM | COc1ccc(S(=O)(=O)Nc2ccc(N(Cc3cccc(C)c3)[C@@H](C)CC(=O)O)c3ccccc23)cc1 [DDO-1168, (S)-3-((4-((4-methoxyphenyl)sulfonamido)naphthalen-1-yl) (3-methylbenzyl)amino) butanoic acid] | –
10 | 205 nM | COc1ccc(S(=O)(=O)N(CC(=O)O)c2ccc(N(Cc3cccc(C)c3)[C@@H](C)CC(=O)O)c3ccccc23)cc1 [DDO-1169] | –
11 | 1090 nM | COc1ccc(S(=O)(=O)Nc2ccc(N(Cc3ccccc3C)[C@@H](C)CC(=O)O)c3ccccc23)cc1 [DDO-1170, (S)-3-((4-((4-methoxyphenyl)sulfonamido)naphthalen-1-yl) (2-methylbenzyl)amino) butanoic acid] | –
12 | 113 nM | COc1ccc(S(=O)(=O)N(CC(=O)O)c2ccc(N(Cc3ccccc3C)[C@@H](C)CC(=O)O)c3ccccc23)cc1 [DDO-1171] | –
13 | 3780 nM | COc1ccc(S(=O)(=O)Nc2ccc(N(Cc3cccc(Cl)c3)[C@@H](C)CC(=O)O)c3ccccc23)cc1 [DDO-1172, (S)-3-((3-chlorobenzyl) (4-((4-methoxyphenyl)sulfonamido)naphthalen-1-yl)amino) butanoic acid] | –
14 | 180 nM | COc1ccc(S(=O)(=O)N(CC(=O)O)c2ccc(N(Cc3cccc(Cl)c3)[C@@H](C)CC(=O)O)c3ccccc23)cc1 [DDO-1173, (S)-3-((4-((N-(Carboxymethyl)-4-methoxyphenyl)sulfonamido)naphthalen-1-yl) (3-chlorobenzyl)amino) butanoic acid] | –
15 | 1600 nM | COc1ccc(S(=O)(=O)Nc2ccc(N(Cc3ccccc3Cl)[C@@H](C)CC(=O)O)c3ccccc23)cc1 [DDO-1174, (S)-3-((2-chlorobenzyl) (4-((4-methoxyphenyl)sulfonamido)naphthalen-1-yl)amino) butanoic acid] | –
16 | 109 nM | COc1ccc(S(=O)(=O)N(CC(=O)O)c2ccc(N(Cc3ccccc3Cl)[C@@H](C)CC(=O)O)c3ccccc23)cc1 [DDO-1175, (S)-3-((4-((N-(Carboxymethyl)-4-methoxyphenyl)sulfonamido)naphthalen-1-yl) (2-chlorobenzyl)amino) butanoic acid] | –
17 | 2470 nM | COc1ccc(S(=O)(=O)Nc2ccc(N(Cc3cccc(F)c3)[C@@H](C)CC(=O)O)c3ccccc23)cc1 [DDO-1176, (S)-3-((3-fluorobenzyl) (4-((4-methoxyphenyl)sulfonamido)naphthalen-1-yl)amino) butanoic acid] | –

Row | IC50 [1] | Compound | further results
18 | 180 nM | COc1ccc(S(=O)(=O)N(CC(=O)O)c2ccc(N(Cc3cccc(F)c3)[C@@H](C)CC(=O)O)c3ccccc23)cc1 [DDO-1177, (S)-3-((4-((N-(carboxymethyl)-4-methoxyphenyl)sulfonamido)naphthalen-1-yl) (3-fluorobenzyl)amino) butanoic acid] | –
19 | 460 nM | COc1ccc(S(=O)(=O)Nc2ccc(N(Cc3ccccc3F)[C@@H](C)CC(=O)O)c3ccccc23)cc1 [DDO-1178, (S)-3-((2-fluorobenzyl) (4-((4-methoxyphenyl)sulfonamido)naphthalen-1-yl)amino) butanoic acid] | –
20 | 75 nM | COc1ccc(S(=O)(=O)N(CC(=O)O)c2ccc(N(Cc3ccccc3F)[C@@H](C)CC(=O)O)c3ccccc23)cc1 [DDO-1179] | –
21 | – | C#CCN(c1ccc(NS(=O)(=O)c2ccc(OC)cc2)c2ccccc12)[C@@H](C)CC(=O)O [DDO-1180] | IC50 [2]: 95 nM
22 | – | C#CCN(c1ccc(N(CC(=O)O)S(=O)(=O)c2ccc(OC)cc2)c2ccccc12)[C@@H](C)CC(=O)O [DDO-1181] | IC50 (general formula IV compounds): 68 nM
23 | – | C#CCN(c1ccc(NS(=O)(=O)c2ccccc2)c2ccccc12)[C@@H](C)CC(=O)O [DDO-1186, (S)-3-((4-(phenylsulfonamido)naphthalen-1-yl)(prop-2-yn-1-yl)amino) butanoic acid] | IC50 [2]: 8000 nM
24 | – | C#CCN(c1ccc(N(CC(=O)O)S(=O)(=O)c2ccccc2)c2ccccc12)[C@@H](C)CC(=O)O [DDO-1187, (S)-3-((4-(N-(carboxymethyl)benzenesulfonamido)naphthalen-1-yl) (prop-2-yn-1-yl)amino) butanoic acid] | IC50 (general formula IV compounds): 3000 nM
25 | – | C#CCN(c1ccc(NS(=O)(=O)c2ccc(NC(C)=O)cc2)c2ccccc12)[C@@H](C)CC(=O)O [DDO-1188, (S)-3-((4-((4-acetamidophenyl)sulfonamido)naphthalen-1-yl) (prop-2-yn-1-yl)amino) butanoic acid] | IC50 [2]: 1460 nM
26 | – | C#CCN(c1ccc(N(CC(=O)O)S(=O)(=O)c2ccc(NC(C)=O)cc2)c2ccccc12)[C@@H](C)CC(=O)O [DDO-1189, (S)-3-((4-((4-acetamido-N-(carboxymethyl)phenyl)sulfonamido)naphthalen-1-yl)(prop-2-yn-1-yl)amino) butanoic acid] | IC50 (general formula IV compounds): 630 nM
27 | – | C#CCN(c1ccc(NS(=O)(=O)c2ccc(F)cc2)c2ccccc12)[C@@H](C)CC(=O)O [DDO-1190, (S)-3-((4-((4-fluorophenyl)sulfonamido)naphthalen-1-yl)(prop-2-yn-1-yl)amino) butanoic acid] | IC50 [2]: 4000 nM
28 | – | C#CCN(c1ccc(N(CC(=O)O)S(=O)(=O)c2ccc(F)cc2)c2ccccc12)[C@@H](C)CC(=O)O [DDO-1191, (S)-3-((4-((N-(carboxymethyl)-4-fluorophenyl)sulfonamido)naphthalen-1-yl) (prop-2-yn-1-yl)amino) butanoic acid] | IC50 (general formula IV compounds): 2000 nM
29 | – | C#CCN(c1ccc(NS(=O)(=O)c2ccc(Cl)cc2)c2ccccc12)[C@@H](C)CC(=O)O [DDO-1192, (S)-3-((4-((4-chlorophenyl)sulfonamido)naphthalen-1-yl)(prop-2-yn-1-yl)amino) butanoic acid] | IC50 [2]: 1700 nM
30 | – | C#CCN(c1ccc(N(CC(=O)O)S(=O)(=O)c2ccc(Cl)cc2)c2ccccc12)[C@@H](C)CC(=O)O [DDO-1193, (S)-3-((4-((N-(Carboxymethyl)-4-chlorophenyl)sulfonamido)naphthalen-1-yl)(prop-2-yn-1-yl)amino) butanoic acid] | IC50 (general formula IV compounds): 950 nM
31 | – | C#CCN(c1ccc(NS(=O)(=O)c2ccc(C)cc2)c2ccccc12)[C@@H](C)CC(=O)O [DDO-1194, (S)-3-((4-((4-methylphenyl)sulfonamido)naphthalen-1-yl)(prop-2-yn-1-yl)amino) butanoic acid] | IC50 [2]: 480 nM
32 | – | C#CCN(c1ccc(N(CC(=O)O)S(=O)(=O)c2ccc(C)cc2)c2ccccc12)[C@@H](C)CC(=O)O [DDO-1195, (S)-3-((4-((N-(Carboxymethyl)-4-methylphenyl)sulfonamide)naphthalen-1-yl)(prop-2-yn-1-yl)amino) butanoic acid] | IC50 (general formula IV compounds): 110 nM
33 | – | C#CCN(c1ccc(NS(=O)(=O)c2ccc(C(C)C)cc2)c2ccccc12)[C@@H](C)CC(=O)O [DDO-1196, (S)-3-((4-((4-isopropylphenyl)sulfonamido)naphthalen-1-yl)(prop-2-yn-1-yl)amino) butanoic acid] | IC50 [2]: 220 nM
